Data taken from US20090325959A1 (priority 2008, published 2009).
Read-outs that look alike come from different tables or passages of the source.

What was measured:
[1] = target: T1, ROCK1 (Homo sapiens, UniProt Q13464); assay: Rho kinase inhibition assay (IMAP fluorescence polarization), ROCK1; assay type: biochemical;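 note: kinase reaction run 60 min at room temperature, then phosphorylated substrate captured on IMAP beads for 30 min, with fluorescence polarization read in mP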
T1 construct: purchased Upstate/Chemicon 14-601
T1 sequence (Q13464 17-535 limits assumed): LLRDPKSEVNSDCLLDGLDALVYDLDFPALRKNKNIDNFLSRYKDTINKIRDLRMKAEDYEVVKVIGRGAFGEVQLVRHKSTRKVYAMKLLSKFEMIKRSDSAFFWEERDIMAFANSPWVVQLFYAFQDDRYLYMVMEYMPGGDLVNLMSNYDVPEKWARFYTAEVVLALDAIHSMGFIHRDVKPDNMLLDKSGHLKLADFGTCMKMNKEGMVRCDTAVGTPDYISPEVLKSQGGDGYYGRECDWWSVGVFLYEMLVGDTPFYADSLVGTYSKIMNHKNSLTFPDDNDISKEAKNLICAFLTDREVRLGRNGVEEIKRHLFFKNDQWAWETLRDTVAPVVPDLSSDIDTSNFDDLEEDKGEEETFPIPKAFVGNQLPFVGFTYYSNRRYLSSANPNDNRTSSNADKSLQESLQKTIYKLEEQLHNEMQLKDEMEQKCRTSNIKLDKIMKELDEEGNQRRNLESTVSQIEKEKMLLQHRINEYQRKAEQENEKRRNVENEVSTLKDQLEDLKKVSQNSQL
Protocol: (§1) Following the pre-incubation, 10 μM ATP was added to initiate the reaction. After 60 minutes at room temperature, Molecular Devices IMAP™ binding solution was added to bind phosphorylated substrate. After 30 minutes of incubation in the presence of the IMAP™ beads, the fluorescence polarization was read and the ratio was reported as mP. IC50 values for compounds and EC50 values for ATP were calculated using the Prism software from Graphpad.

[2] = target: T2, ROCK2 (Homo sapiens, UniProt O75116); assay: Rho kinase inhibition assay (IMAP fluorescence polarization), ROCK2; assay type: biochemical;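 note: kinase reaction started with 10 µM ATP and run 60 min at room temperature, then phosphorylated substrate captured on IMAP beads for 30 min and fluorescence polarization read in mP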
T2 construct: purchased Upstate/Chemicon 14-451
T2 sequence (O75116 11-552 limits assumed): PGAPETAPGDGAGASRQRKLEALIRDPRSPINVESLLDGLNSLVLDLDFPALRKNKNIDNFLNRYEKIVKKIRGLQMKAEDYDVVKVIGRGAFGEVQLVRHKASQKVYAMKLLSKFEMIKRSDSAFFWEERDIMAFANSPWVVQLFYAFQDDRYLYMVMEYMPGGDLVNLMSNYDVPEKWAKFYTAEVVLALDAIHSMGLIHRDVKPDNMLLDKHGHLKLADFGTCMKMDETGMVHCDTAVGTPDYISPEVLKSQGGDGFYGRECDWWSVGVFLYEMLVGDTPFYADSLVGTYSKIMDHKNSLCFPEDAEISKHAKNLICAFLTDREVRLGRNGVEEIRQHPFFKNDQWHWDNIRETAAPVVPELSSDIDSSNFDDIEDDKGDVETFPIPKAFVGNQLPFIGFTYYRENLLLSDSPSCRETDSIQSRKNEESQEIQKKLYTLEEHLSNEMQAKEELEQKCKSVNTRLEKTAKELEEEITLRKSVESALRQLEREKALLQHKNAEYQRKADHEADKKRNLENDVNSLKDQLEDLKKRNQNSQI
Protocol: as §1

[3] = test system: A-10 rat thoracic aorta cells; assay: PDGF-stimulated smooth muscle cell proliferation assay (BrdU incorporation); assay type: cell-based; details: A-10 cells, 10 ng/mL PDGF, BrdU incorporation, percent of total challenge-stimulated proliferation; for Percent of PDGF Induced Proliferation at 1 μM Avg: 1 μM test compound; for Percent of PDGF Induced Proliferation at 10 μM Avg: 10 μM test compound;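 for all read-outs here: cells kept in serum-free medium, BrdU allowed to incorporate for 24 h, then incorporated label detected fluorometrically with an anti-BrdU antibody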
[4] = target: T3, Akt3 human enzyme (Homo sapiens, UniProt Q9Y243); assay: Akt3 inhibition assay (IMAP FP); assay type: biochemical;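 note: kinase reaction run 60 min at room temperature after 30 µM ATP start, phosphorylated substrate captured on IMAP beads and read as fluorescence polarization (mP)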
T3 construct: purchased Upstate Chemicon 14-502
T3 sequence (Q9Y243 whole entry): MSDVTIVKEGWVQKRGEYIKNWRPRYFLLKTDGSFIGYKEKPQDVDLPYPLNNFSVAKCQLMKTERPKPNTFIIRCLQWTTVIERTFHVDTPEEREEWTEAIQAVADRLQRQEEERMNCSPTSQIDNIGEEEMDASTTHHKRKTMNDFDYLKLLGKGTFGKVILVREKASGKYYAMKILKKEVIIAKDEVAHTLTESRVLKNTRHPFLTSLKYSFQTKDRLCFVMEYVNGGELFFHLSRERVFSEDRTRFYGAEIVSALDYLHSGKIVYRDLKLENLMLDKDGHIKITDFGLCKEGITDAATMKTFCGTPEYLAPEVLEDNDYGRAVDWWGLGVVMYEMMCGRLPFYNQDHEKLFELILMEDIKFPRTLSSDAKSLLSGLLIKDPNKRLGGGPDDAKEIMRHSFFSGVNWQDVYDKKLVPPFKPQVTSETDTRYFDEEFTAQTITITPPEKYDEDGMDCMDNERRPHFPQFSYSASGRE
Protocol: (§2) Inhibition of Akt3 and p70S6K activity was determined using the IMAP™ FP Progressive Binding Kit (Molecular Devices product number R8127). […] Following the pre-incubation, 30 μM ATP was added to initiate the reaction. After 60 minutes at RT, Molecular Devices IMAP™ binding solution was added to bind phosphorylated substrate. After 30 minutes of incubation in the presence of the IMAP™ beads the fluorescence polarization was read and the ratio was reported as mP. IC50 results were calculated using the Prism software from Graphpad. The Ki values were determined according to the following formula: Ki=IC50/(1+([ATP Challenge]/EC50 ATP)).

[5] = target: T4, p70S6K human enzyme (Homo sapiens, UniProt P23443, T412E); assay: p70S6K inhibition assay (IMAP FP); assay type: biochemical;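 note: kinase reaction run at room temperature, phosphorylated substrate captured on IMAP beads and read as fluorescence polarization in mP, IC50 then converted to Ki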
T4 construct: purchased Upstate Chemicon 14-486
T4 sequence (P23443 1-421 T412E limits assumed): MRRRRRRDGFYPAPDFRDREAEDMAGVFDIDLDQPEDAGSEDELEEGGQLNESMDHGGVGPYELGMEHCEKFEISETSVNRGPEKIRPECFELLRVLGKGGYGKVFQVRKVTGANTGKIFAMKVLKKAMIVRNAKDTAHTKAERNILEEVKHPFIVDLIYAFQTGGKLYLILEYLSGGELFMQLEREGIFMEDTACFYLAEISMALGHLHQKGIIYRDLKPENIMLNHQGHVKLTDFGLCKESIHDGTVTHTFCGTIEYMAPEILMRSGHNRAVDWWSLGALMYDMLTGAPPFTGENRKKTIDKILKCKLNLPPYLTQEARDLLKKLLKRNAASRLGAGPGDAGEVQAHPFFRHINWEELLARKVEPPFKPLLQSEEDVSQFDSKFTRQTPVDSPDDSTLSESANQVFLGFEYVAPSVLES
Protocol: as §2

[6] = Compound plasma concentrations in unsensitized mice at 15 min post administration; assay type: in vivo; details: mouse, 15 μmol/kg; mean compound plasma concentration in mice at 15 minutes post oral administration; read-out: Mouse Oral PK
Protocol: Additionally, compound concentrations were determined in the plasma and lungs of male, ovalbumin-sensitized, Balb/c mice from a murine model of asthma. Test compounds were formulated in water or 1% polysorbate 80 and dosed at 15 μmol/kg for intraperitoneal (IP) or oral (PO) administration or formulated for intratracheal (IT) administration and dosed at 5 μmol/kg, which directly targets the lungs. Following completion of the in vivo study, mice were euthanized and blood and plasma collected approximately 2.5-3 hours post administration of test compound for bronchodialator (BD) studies and 24 hours post administration for anti-inflamatory (AI) studies. Lungs were homogenized in Matrix A lysing tubes using a FastPrep 24 tissue and cell homogenizer (MP Biomedicals, Solon, Ohio). Both plasma samples and lung extracts were assayed for compound concentrations using an on-line, solid phase extraction LC/MS/MS system.

[7] = 10 μM ATP, read-out: ROCK2 Ki, Avg
[8] = 30 μM ATP, Ki=IC50/(1+([ATP Challenge]/EC50 ATP)), read-out: Akt3 Ki, Avg
[9] = 30 μM ATP, Ki=IC50/(1+([ATP Challenge]/EC50 ATP)), read-out: p70S6K Ki, Avg
[10] = average Ki, read-out: p70S6K Ki

SMILES | Ki ([1]; Avg, 10 μM ATP) | Ki ([1]; average Ki) | Ki [2, 7] | Ki ([2]; average Ki, read-out: ROCK2 Ki) | Percent of PDGF Induced Proliferation at 1 μM Avg [3] | Percent of PDGF Induced Proliferation at 10 μM Avg [3] | Ki [4, 8] | Ki ([4]; average Ki, read-out: Akt3 Ki) | Ki [5, 9] | Ki [5, 10] | concentration at 15 min [6]
NS(=O)(=O)c1cccc(CN2CCC[C@H](Nc3ccc4[nH]ncc4c3)C2)c1 [Compound 1.215, (S)-3-((3-(1H-indazol-5-ylamino)piperidin-1-yl)methyl)benzenesulfonamide] | 0.103 µM | 0.103 µM | 0.0035 µM | 0.0035 µM | 70.8% | 54.0% | 14.8 µM | 4.75 µM | 1.29 µM | 1.29 µM | 2650 nM
CC(=O)NCc1cccc(CN2CCC[C@H](Nc3ccc4[nH]ncc4c3)C2)c1 [Compound 1.197] | 0.12 µM | 0.12 µM | 0.005 µM | 0.005 µM | 52.5% | 48.9% | 64.1 µM | 64.1 µM | 8.69 µM | 8.69 µM | 453 nM
C#Cc1ccc(CN2CCC[C@@H](Nc3ccc4[nH]ncc4c3)C2)cc1 [Compound 1.076, (R)-N-(1-(4-ethynylbenzyl)piperidin-3-yl)-1H-indazol-5-amine] | 0.0143 µM | 0.0143 µM | 0.0026 µM | 0.0026 µM | 84.0% | 53.7% | 0.241 µM | 0.241 µM | 0.414 µM | 0.414 µM | 1720 nM
Cc1ccc(S(=O)(=O)Nc2cc(CN3CCC[C@H](Nc4ccc5[nH]ncc5c4)C3)ccc2C)cc1 [Compound 1.239, (S)-N-(5-((3-(1H-indazol-5-ylamino)piperidin-1-yl)methyl)-2-methylphenyl)-4-methylbenzenesulfonamide] | 0.283 µM | 0.283 µM | 0.0063 µM | 0.0063 µM | 41.7% | 37.8% | 17.7 µM | 17.7 µM | 10 µM | 10 µM | 259 nM
CCCS(=O)(=O)Nc1cc(CN2CCC[C@H](Nc3ccc4[nH]ncc4c3)C2)ccc1C [Compound 1.238, (S)-N-(5-((3-(1H-indazol-5-ylamino)piperidin-1-yl)methyl)-2-methylphenyl)propane-1-sulfonamide] | 0.0612 µM | 0.0612 µM | 0.0015 µM | 0.0015 µM | 40.7% | 48.6% | 4.17 µM | 4.17 µM | 2.61 µM | 2.61 µM | 48 nM
CCS(=O)(=O)Nc1cc(CN2CC[C@@H](Nc3cccc4cnccc34)C2)ccc1C [Compound 2.054, (R)-N-(5-((3-(isoquinolin-5-ylamino)pyrrolidin-1-yl)methyl)-2-methylphenyl)ethanesulfonamide] | 0.0171 µM | 0.0171 µM | 0.0037 µM | 0.0037 µM | 68.2% | 84.6% | 0.415 µM | 0.415 µM | 0.439 µM | 0.439 µM | 765 nM
CS(=O)(=O)Nc1cc(CN2CCC[C@H](Nc3ccc4[nH]ncc4c3)C2)ccc1Cl [Compound 1.213, (S)-N-(5-((3-(1H-indazol-5-ylamino)piperidin-1-yl)methyl)-2-chlorophenyl)methanesulfonamide] | 0.106 µM | 0.106 µM | 0.003 µM | 0.003 µM | 70.1% | 52.3% | 3.21 µM | 3.21 µM | 2.1 µM | 2.1 µM | 396 nM
c1cc2cc(CN3CCC[C@H](Nc4ccc5[nH]ncc5c4)C3)ccc2s1 [Compound 1.175, (S)-N-(1-(benzo[b]thiophen-5-ylmethyl)piperidin-3-yl)-1H-indazol-5-amine] | 0.0659 µM | 0.0659 µM | 0.0076 µM | 0.0076 µM | 58.2% | 49.0% | 2.82 µM | 2.82 µM | 0.853 µM | 0.853 µM | 1130 nM
CCS(=O)(=O)Nc1cccc(CN2CC[C@@H](Nc3cccc4cnccc34)C2)c1 [Compound 2.041, (R)-N-(3-((3-(isoquinolin-5-ylamino)pyrrolidin-1-yl)methyl)phenyl)ethanesulfonamide] | 0.0308 µM | 0.0308 µM | 0.0096 µM | 0.0096 µM | 81.8% | 61.5% | 3.44 µM | 3.44 µM | 2.1 µM | 2.1 µM | 987 nM
CCS(=O)(=O)Nc1cc(CN2CCC[C@H](Nc3ccc4[nH]ncc4c3)C2)ccc1C [Compound 1.253, (S)-N-(5-((3-(1H-indazol-5-ylamino)piperidin-1-yl)methyl)-2-methylphenyl)ethanesulfonamide] | 0.0599 µM | 0.0599 µM | 0.0017 µM | 0.0017 µM | 44.8% | 47.9% | 2.6 µM | 2.6 µM | 2.51 µM | 2.51 µM | 240 nM
C#Cc1ccc(CN2CC[C@@H](Nc3cccc4cnccc34)C2)cc1 [Compound 2.031, (R)-N-(1-(4-ethynylbenzyl)pyrrolidin-3-yl)isoquinolin-5-amine] | 0.0146 µM | 0.0146 µM | 0.0053 µM | 0.0053 µM | 90.3% | 52.6% | 1.36 µM | 1.36 µM | 0.326 µM | 0.326 µM | 1430 nM
Cc1ccc(CN2CCC[C@@H](Nc3ccc4[nH]ncc4c3)C2)cc1O [Compound 1.173, (R)-5-((3-(1H-indazol-5-ylamino)piperidin-1-yl)methyl)-2-methylphenol] | 0.0151 µM | 0.0151 µM | 0.0036 µM | 0.0036 µM | 55.4% | 35.8% | 0.157 µM | 0.157 µM | 0.34 µM | 0.34 µM | 144 nM
Clc1ccc(CN2CCC[C@@H](Nc3ccc4[nH]ncc4c3)C2)cc1 [Compound 1.132, (R)-N-(1-(4-chlorobenzyl)piperidin-3-yl)-1H-indazol-5-amine] | 0.0225 µM | 0.0225 µM | 0.0035 µM | 0.0035 µM | 48.9% | 30.3% | 0.0818 µM | 0.0818 µM | 0.515 µM | 0.515 µM | 982 nM
NC(=O)Cn1ccc2cc(CN3CCC[C@H](Nc4ccc5[nH]ncc5c4)C3)ccc21 [Compound 1.165, (S)-2-(5-((3-(1H-indazol-5-ylamino)piperidin-1-yl)methyl)-1H-indol-1-yl)acetamide] | 0.0507 µM | 0.0507 µM | 0.0034 µM | 0.0034 µM | 74.8% | 57.9% | 4.14 µM | 4.14 µM | 1.63 µM | 1.63 µM | 94 nM
c1cc2ccc(CN3CCC[C@H](Nc4ccc5[nH]ncc5c4)C3)cc2[nH]1 [Compound 1.148, (S)-N-(1-((1H-indol-6-yl)methyl)piperidin-3-yl)-1H-indazol-5-amine] | 0.0243 µM | 0.0243 µM | 0.0036 µM | 0.0036 µM | 56.9% | 63.5% | 1.13 µM | 1.13 µM | 0.436 µM | 0.436 µM | 767 nM
CC(C)c1ccc(CN2CCC[C@H](Nc3ccc4[nH]ncc4c3)C2)cc1 [Compound 1.180, (S)-N-(1-(4-isopropylbenzyl)piperidin-3-yl)-1H-indazol-5-amine] | 0.139 µM | – | 0.0231 µM | – | 92.4% | 64.8% | 12 µM | – | 1.03 µM | – | –
CC(C)c1ccc(CN2CCC[C@@H](Nc3ccc4[nH]ncc4c3)C2)cc1 [Compound 1.204, (R)-N-(1-(4-isopropylbenzyl)piperidin-3-yl)-1H-indazol-5-amine] | 0.196 µM | – | 0.0319 µM | – | 79.3% | 42.8% | 1.91 µM | – | 0.927 µM | – | –
FC(F)(F)c1ccc(CN2CCC[C@H](Nc3ccc4[nH]ncc4c3)C2)cc1 [Compound 1.167, (S)-N-(1-(4-(trifluoromethyl)benzyl)piperidin-3-yl)-1H-indazol-5-amine] | 0.119 µM | – | 0.0185 µM | – | 78.8% | 52.7% | 8.25 µM | – | 1.07 µM | – | –
